molecular target: human GOAT (Homo sapiens (Human), UniProt Q96T53); test: Determination of hGOAT Activity in HEK293 Cells after Incubation with Test Compound; format: cell-based; settings: HEK293 cells stably transfected with preproghrelin and human GOAT; octanoate-BSA 100 μM; acyl-ghrelin in medium by ELISA after 5 hours
Summary of the method: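 HEK293 cells stably expressing preproghrelin and human GOAT were given serum-free medium with 100 μM octanoate-BSA plus compound (0.3% DMSO) for 5 h. Acyl-ghrelin in the medium was quantified by ELISA (A405, standard curve) as % of vehicle. IC50 was fitted from 8 concentrations.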

Sequence of human GOAT (Q96T53 whole entry): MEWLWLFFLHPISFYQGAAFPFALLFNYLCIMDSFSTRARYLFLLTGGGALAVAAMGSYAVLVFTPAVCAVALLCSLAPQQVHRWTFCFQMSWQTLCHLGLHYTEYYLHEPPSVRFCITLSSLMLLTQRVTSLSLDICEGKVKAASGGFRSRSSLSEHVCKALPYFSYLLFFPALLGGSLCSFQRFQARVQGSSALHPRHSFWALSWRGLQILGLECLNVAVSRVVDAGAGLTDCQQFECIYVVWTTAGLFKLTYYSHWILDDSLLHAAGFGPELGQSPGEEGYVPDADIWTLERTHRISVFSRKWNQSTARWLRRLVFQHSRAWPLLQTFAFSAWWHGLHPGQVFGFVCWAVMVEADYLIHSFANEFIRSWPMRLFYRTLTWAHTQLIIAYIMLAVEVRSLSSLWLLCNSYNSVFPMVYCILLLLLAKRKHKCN

SMILES | IC50 [pM]
Cc1nc2nonc2c(N)c1Cc1ccc(C#N)c(OCC(C)(F)F)n1 [Example 103, 6-(7-Amino-5-methyl-[1,2,5]oxadiazolo[3,4-b]pyridin-6-ylmethyl)-2-(2,2-difluoro-propoxy)-nicotinonitrile] | 86
Cc1nc2nonc2c(N)c1Cc1ccc(Br)c(OCC2(C)COC2)n1 [Example 95, 6-[5-Bromo-6-(3-methyl-oxetan-3-ylmethoxy)-pyridin-2-ylmethyl]-5-methyl-[1,2,5]oxadiazolo[3,4-b]pyridin-7-ylamine] | 82
Cc1nc2nonc2c(N)c1Cc1nc(C(F)F)c(Cl)c(C(F)F)n1 [Example 167, 6-[5-chloro-4,6-bis(difluoromethyl)pyrimidin-2-yl]methyl-5-methyl-[1,2,5]oxadiazolo[3,4-b]pyridin-7-amine] | 820
Cc1nc2nonc2c(N)c1Cc1nc(C#N)cc(C(F)F)n1 [Example 165, 2-(7-amino-5-methyl-[1,2,5]oxadiazolo[3,4-b]pyridin-6-ylmethyl)-6-(difluoromethyl)pyrimidine-4-carbonitrile] | 14000
Cc1nc2nonc2c(N)c1Cc1ncc(C#N)c(N)n1 [Example 45, 4-amino-2-(7-amino-5-methyl-[1,2,5]oxadiazolo[3,4-b]pyridin-6-ylmethyl)pyrimidine-5-carbonitrile] | 1200
Cc1nc2nonc2c(N)c1Cc1ccc(OC(F)F)c(Br)n1 [Example 15, 6-(6-Bromo-5-difluoromethoxy-pyridin-2-ylmethyl)-5-methyl-[1,2,5]oxadiazolo[3,4-b]pyridin-7-ylamine] | 38
Cc1nc2nonc2c(N)c1Cc1ccc(-c2cnn3c2CCC3)c(N)n1 [Example 65, 6-[6-Amino-5-(5,6-dihydro-4H-pyrrolo[1,2-b]pyrazol-3-yl)-pyridin-2-ylmethyl]-5-methyl-[1,2,5]oxadiazolo[3,4-b]pyridin-7-ylamine] | 290
Cc1nc2nonc2c(N)c1Cc1ccc(C#N)c(NCC(C)(C)C(N)=O)n1 [Example 148, 3-[6-(7-Amino-5-methyl-[1,2,5]oxadiazolo[3,4-b]pyridin-6-ylmethyl)-3-cyano-pyridin-2-ylamino]-2,2-dimethyl-propionamide] | 150
Cc1nc2nonc2c(N)c1Cc1ccc(Oc2ccccc2)c(C#N)n1 [Example 118, 6-(7-Amino-5-methyl-[1,2,5]oxadiazolo[3,4-b]pyridin-6-ylmethyl)-3-phenoxy-pyridine-2-carbonitrile] | 85
Cc1nc2nonc2c(N)c1Cc1ccc(Br)c(N2CC(C)(O)C2)n1 [Example 122, 1-[6-(7-Amino-5-methyl-[1,2,5]oxadiazolo[3,4-b]pyridin-6-ylmethyl)-3-bromo-pyridin-2-yl]-3-methyl-azetidin-3-ol] | 33
Cc1nc2nonc2c(N)c1Cc1ccccn1 [Example 58, 5-methyl-6-[(pyridin-2-yl)methyl]-[1,2,5]oxadiazolo[3,4-b]pyridin-7-amine] | 2800
Cc1nc2nonc2c(N)c1Cc1ccc(OCC(F)F)c(C#N)n1 [Example 116, 6-(7-Amino-5-methyl-[1,2,5]oxadiazolo[3,4-b]pyridin-6-ylmethyl)-3-(2,2-difluoro-ethoxy)-pyridine-2-carbonitrile] | 830
Cc1nc2nonc2c(N)c1Cc1cc(C(F)(F)F)cc(C#N)n1 [Example 36, 6-(7-amino-5-methyl-[1,2,5]oxadiazolo[3,4-b]pyridin-6-ylmethyl)-4-(trifluoromethyl)pyridine-2-carbonitrile] | 6900
Cc1nc2nonc2c(N)c1Cc1ccc(C#N)c(OCC(F)(F)F)n1 [Example 107, 6-(7-Amino-5-methyl-[1,2,5]oxadiazolo[3,4-b]pyridin-6-ylmethyl)-2-(2,2,2-trifluoro-ethoxy)-nicotinonitrile] | 330
Cc1nc2nonc2c(N)c1Cc1ncc(C#N)c(C2CCOC2)n1 (stereo not drawn) [Example 80, 2-(7-amino-5-methyl-[1,2,5]oxadiazolo[3,4-b]pyridin-6-ylmethyl)-4-(oxolan-3-yl)pyrimidine-5-carbonitrile] | 3800
Cc1nc2nonc2c(N)c1Cc1ccc2c(n1)OCCO2 [Example 18, 6-(2,3-Dihydro-[1,4]dioxino[2,3-b]pyridin-6-ylmethyl)-5-methyl-[1,2,5]oxadiazolo[3,4-b]pyridin-7-ylamine] | 320
Cc1nc2nonc2c(N)c1Cc1ccc(OC(F)F)c(=O)[nH]1 [Example 120, 6-(7-Amino-5-methyl-[1,2,5]oxadiazolo[3,4-b]pyridin-6-ylmethyl)-3-difluoromethoxy-1H-pyridin-2-one] | 4300
Cc1nc2nonc2c(N)c1Cc1ccc(OCC(F)(F)F)c(C#N)n1 [Example 114, 6-(7-Amino-5-methyl-[1,2,5]oxadiazolo[3,4-b]pyridin-6-ylmethyl)-3-(2,2,2-trifluoro-ethoxy)-pyridine-2-carbonitrile] | 3900

SMILES | IC50 [pM]
Cc1nc2nonc2c(N)c1Cc1cccc(F)n1 [Example 13, 6-(6-Fluoro-pyridin-2-ylmethyl)-5-methyl-[1,2,5]oxadiazolo[3,4-b]pyridin-7-ylamine] | 4400
Cc1nc2nonc2c(N)c1Cc1ccc(Br)c(NC2CC(F)(F)C2)n1 [Example 128, 6-[5-Bromo-6-(3,3-difluoro-cyclobutylamino)-pyridin-2-ylmethyl]-5-methyl-[1,2,5]oxadiazolo[3,4-b]pyridin-7-ylamine] | 96
Cc1nc2nonc2c(N)c1Cc1cccc(-c2cncn2C)n1 [Example 59, 5-Methyl-6-[6-(3-methyl-3H-imidazol-4-yl)-pyridin-2-ylmethyl]-[1,2,5]oxadiazolo[3,4-b]pyridin-7-ylamine] | 340
Cc1nc2nonc2c(N)c1Cc1cc(C#N)c(C#N)cn1 [Example 76, 6-(7-amino-5-methyl-[1,2,5]oxadiazolo[3,4-b]pyridin-6-ylmethyl)pyridine-3,4-dicarbonitrile] | 14000
Cc1nc2nonc2c(N)c1Cc1ccc(C#N)c(NCCCF)n1 [Example 149, 6-(7-Amino-5-methyl-[1,2,5]oxadiazolo[3,4-b]pyridin-6-ylmethyl)-2-(3-fluoro-propylamino)-nicotinonitrile] | 27
Cc1nc2nonc2c(N)c1Cc1ccc(-n2cccn2)c(C#N)n1 [Example 157, 6-(7-Amino-5-methyl-[1,2,5]oxadiazolo[3,4-b]pyridin-6-ylmethyl)-3-pyrazol-1-yl-pyridine-2-carbonitrile] | 260
Cc1nc2nonc2c(N)c1Cc1ccc(C(C)(F)F)cn1 [Example 11, 6-[5-(1,1-Difluoro-ethyl)-pyridin-2-ylmethyl]-5-methyl-[1,2,5]oxadiazolo[3,4-b]pyridin-7-ylamine] | 130
Cc1nc2nonc2c(N)c1Cc1ccc(C#N)c(OCCC(F)(F)F)n1 [Example 110, 6-(7-Amino-5-methyl-[1,2,5]oxadiazolo[3,4-b]pyridin-6-ylmethyl)-2-(3,3,3-trifluoro-propoxy)-nicotinonitrile] | 280
Cc1nc2nonc2c(N)c1Cc1ccc(C#N)c(NCCC(F)F)n1 [Example 144, 6-(7-Amino-5-methyl-[1,2,5]oxadiazolo[3,4-b]pyridin-6-ylmethyl)-2-(3,3-difluoro-propylamino)-nicotinonitrile] | 55
Cc1nc2nonc2c(N)c1Cc1ccc(C#N)c(N2CCC(F)(F)C2)n1 [Example 143, 6-(7-Amino-5-methyl-[1,2,5]oxadiazolo[3,4-b]pyridin-6-ylmethyl)-2-(3,3-difluoro-pyrrolidin-1-yl)-nicotinonitrile] | 46
Cc1nc2nonc2c(N)c1Cc1cccc(C2(C#N)CCCC2)n1 [Example 64, 1-[6-(7-Amino-5-methyl-[1,2,5]oxadiazolo[3,4-b]pyridin-6-ylmethyl)-pyridin-2-yl]-cyclopentanecarbonitrile] | 100
Cc1nc2nonc2c(N)c1Cc1cccc(-c2cn(C)nc2C(F)(F)F)n1 [Example 61, 5-Methyl-6-[6-(1-methyl-3-trifluoromethyl-1H-pyrazol-4-yl)-pyridin-2-ylmethyl]-[1,2,5]oxadiazolo[3,4-b]pyridin-7-ylamine] | 290
Cc1nc2nonc2c(N)c1Cc1ccc(C2CC2)c(C#N)n1 [Example 42, 6-(7-amino-5-methyl-[1,2,5]oxadiazolo[3,4-b]pyridin-6-ylmethyl)-3-cyclopropylpyridine-2-carbonitrile] | 73
Cc1nc2nonc2c(N)c1Cc1ccc(-n2ccc(C(F)(F)F)n2)c(C#N)n1 [Example 156, 6-(7-Amino-5-methyl-[1,2,5]oxadiazolo[3,4-b]pyridin-6-ylmethyl)-3-(3-trifluoromethyl-pyrazol-1-yl)-pyridine-2-carbonitrile] | 3500
Cc1nc2nonc2c(N)c1Cc1cc(C#N)ccn1 [Example 28, 2-(7-Amino-5-methyl-[1,2,5]oxadiazolo[3,4-b]pyridin-6-ylmethyl)-isonicotinonitrile] | 48000
Cc1nc2nonc2c(N)c1Cc1ccc(C#N)c(NCC2(C)CCOC2)n1 (stereo not drawn) [Example 147, 6-(7-Amino-5-methyl-[1,2,5]oxadiazolo[3,4-b]pyridin-6-ylmethyl)-2-[(3-methyl-tetrahydro-furan-3-ylmethyl)-amino]-nicotinonitrile] | 250
Cc1nc2nonc2c(N)c1Cc1ccc(C(F)F)cn1 [Example 9, 6-(5-Difluoromethyl-pyridin-2-ylmethyl)-5-methyl-[1,2,5]oxadiazolo[3,4-b]pyridin-7-ylamine] | 440
Cc1nc2nonc2c(N)c1Cc1ccc(C#N)c(C2CC2)n1 [Example 43, 6-(7-amino-5-methyl-[1,2,5]oxadiazolo[3,4-b]pyridin-6-ylmethyl)-2-cyclopropylpyridine-3-carbonitrile] | 370

Reference: US10308667B2, “Oxadiazolopyridine derivatives for use as ghrelin O-acyl transferase (GOAT) inhibitors” (Boehringer Ingelheim International GmbH, priority 2016, dated 2019)
